Read-outs that look alike come from different tables or passages of the source.
Assays:
Type in all cases: biochemical
rhVAP-1 = rhVAP-1 (Homo sapiens (Human), UniProt Q16853); assay: VAP-1 fluorometric assay (Amplex Red/HRP, H2O2 from oxidative deamination of benzylamine); conditions: rhVAP-1, 50 μM benzylamine, 30 minutes at 37° C., pH 7.4
Procedure: The capability of compounds described herein to inhibit the enzymatic activity of vascular adhesion protein-1 (VAP-1) was determined by fluorometric assay. The assay procedure provided by R&D Systems was modified slightly for use as an inhibitor screening assay. The assay measured the H2O2 generated from the oxidative deamination of benzylamine by rhVAP-1 by converting Amplex® Red to the fluorescent product, resorufin, via horseradish peroxidase (HRP) and H2O2. Reaction buffer was 10 mM NaHCO3, pH 7.4. A standard curve was prepared by serially diluting H2O2 in reaction buffer. A 10 μM solution of resorufin was prepared in reaction buffer and was dispensed to 2 wells. These wells served as positive control for maximum fluorescence. Reaction buffer was added to the individual wells so that the final volume in each well was 100 μL. Amplex Red was diluted to 1 mM in reaction buffer. A 10 U stock of HRP was prepared in reaction buffer. A reaction cocktail was prepared by mixing equal parts 1 mM Amplex Red with 10 U HRP with 3 parts reaction buffers. The reaction cocktail was added to the appropriate wells, so that that final concentration in the well was 0.05 mM Amplex Red and 0.5 U HRP. A 200 μM solution of benzylamine was prepared in reaction buffer. Benzylamine was added to the appropriate wells so that the final concentration was 50 μM. Inhibitors were diluted in DMSO to 20× and distributed to the appropriate wells. UP-1207 served a positive control. rhVAP-1 was purchased from R&D Systems. The concentration used for each lot was determined so that the activity was equal to the first lot. […] The plate was read at […]. […]
The capability of compounds described herein to inhibit the enzymatic activity of vascular adhesion protein-1 (VAP-1) was determined by fluorometric assay. […] The assay measured the H2O2 generated from the oxidative deamination of benzylamine by rhVAP-1 by converting Amplex® Red to the fluorescent product, resorufin, via horseradish peroxidase (HRP) and H2O2. […] The plate was read at 530/35 emission and 590/35 excitation. […]

rhMAO-B = rhMAO-B (Homo sapiens (Human), UniProt P27338); assay: MAO-B inhibition assay (modified Promega MAO-Glo)
Procedure: (§1) The capability of compounds described herein to inhibit MAO was determined using a modified Promega MAO-Glo™ assay kit. The substrate ((4S)-4,5-dihydro-2-(6-hydroxybenzothiazolyl)-4-thiazolecarboxylic acid) was converted by MAO to produce methyl ester luciferin. The luciferin was then converted by luciferase to produce oxyluciferin and light. The light was measured using a luminescence setting on the plate reader. A standard curve was prepared by serially diluting luciferin in reaction buffer. The standard kit reaction buffer was used—100 mM HEPES (pH 7.5), 5% glycerol. The substrate was dispensed into the wells so that the final concentration for MAO-A inhibition assay would be 10 μM and MAO-B inhibition assay would be 1 μM. Inhibitors were diluted in DMSO to 4× and distributed to the appropriate wells. Clorgyline and Deprenyl served as positive controls. rhMAO-A and rhMAO-B were purchased from Sigma. MAO-A or MAO-B was added to the appropriate wells. The plate was incubated for 1 hour, at room temperature with gentle shaking (90 rpm). The detection agent was added at equal volume (48 μL detection agent to 48 μL reaction). The plate was incubated for 20 minutes, at room temperature with gentle shaking (90 rpm). The plate luminescence was read. Data processing was performed using Prism software.
(§2) The capability of compounds described herein to inhibit MAO was determined using a modified Promega MAO-Glo™ assay. Test compounds, substrate and enzyme were incubated per manufacturer instructions for 1 hour, at room temperature with gentle shaking (90 rpm) before addition of detection agent. The detection agent was added at equal volume (48 μL detection agent to 48 μL reaction). The plate was incubated for 20 minutes, at room temperature with gentle shaking (90 rpm). The plate luminescence was read. Data processing was performed using Prism software.

rhMAO-A = rhMAO-A (Homo sapiens (Human), UniProt P21397); assay: MAO-A inhibition assay (modified Promega MAO-Glo); conditions: substrate 10 μM, 1 hour at room temperature
Procedure: as §1, §2

[1] = rhMAO-B, substrate 1 μM, 1 hour at room temperature, read-out: MAO B IC50

Chain of rhMAO-B (P27338 whole entry): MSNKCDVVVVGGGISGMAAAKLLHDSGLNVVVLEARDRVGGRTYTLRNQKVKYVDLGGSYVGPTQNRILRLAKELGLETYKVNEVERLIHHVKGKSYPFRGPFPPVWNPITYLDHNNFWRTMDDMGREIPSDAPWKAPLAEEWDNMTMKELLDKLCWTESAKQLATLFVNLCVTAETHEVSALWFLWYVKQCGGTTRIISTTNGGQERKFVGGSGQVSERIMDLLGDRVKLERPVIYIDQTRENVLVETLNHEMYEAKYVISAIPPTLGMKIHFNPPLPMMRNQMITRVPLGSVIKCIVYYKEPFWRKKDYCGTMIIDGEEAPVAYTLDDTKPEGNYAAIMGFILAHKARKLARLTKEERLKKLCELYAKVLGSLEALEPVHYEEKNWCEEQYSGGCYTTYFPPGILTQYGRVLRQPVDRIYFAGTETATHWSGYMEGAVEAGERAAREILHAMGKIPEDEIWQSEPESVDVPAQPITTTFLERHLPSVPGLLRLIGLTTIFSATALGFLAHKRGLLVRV
Chain of rhVAP-1 (Q16853 whole entry): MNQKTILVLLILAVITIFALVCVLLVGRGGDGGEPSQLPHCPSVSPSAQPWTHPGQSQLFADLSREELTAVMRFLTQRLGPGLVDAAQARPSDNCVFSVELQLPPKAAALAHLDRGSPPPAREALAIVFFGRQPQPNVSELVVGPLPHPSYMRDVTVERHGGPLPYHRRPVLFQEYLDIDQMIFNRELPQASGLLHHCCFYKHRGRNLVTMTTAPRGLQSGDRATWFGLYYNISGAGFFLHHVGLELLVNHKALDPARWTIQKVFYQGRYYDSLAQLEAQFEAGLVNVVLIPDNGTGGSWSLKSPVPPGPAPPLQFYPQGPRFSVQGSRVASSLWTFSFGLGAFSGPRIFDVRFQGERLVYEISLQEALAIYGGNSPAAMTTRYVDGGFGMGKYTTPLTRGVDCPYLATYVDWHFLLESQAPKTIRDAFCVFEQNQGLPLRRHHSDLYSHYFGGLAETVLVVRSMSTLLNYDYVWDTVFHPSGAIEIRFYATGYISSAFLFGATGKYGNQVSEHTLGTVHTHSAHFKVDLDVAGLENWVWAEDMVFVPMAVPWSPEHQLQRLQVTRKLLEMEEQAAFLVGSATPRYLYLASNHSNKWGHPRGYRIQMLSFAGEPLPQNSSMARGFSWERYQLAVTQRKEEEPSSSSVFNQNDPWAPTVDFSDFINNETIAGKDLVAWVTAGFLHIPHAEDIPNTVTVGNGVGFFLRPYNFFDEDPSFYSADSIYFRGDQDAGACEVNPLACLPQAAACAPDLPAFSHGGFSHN
Chain of rhMAO-A (P21397 whole entry): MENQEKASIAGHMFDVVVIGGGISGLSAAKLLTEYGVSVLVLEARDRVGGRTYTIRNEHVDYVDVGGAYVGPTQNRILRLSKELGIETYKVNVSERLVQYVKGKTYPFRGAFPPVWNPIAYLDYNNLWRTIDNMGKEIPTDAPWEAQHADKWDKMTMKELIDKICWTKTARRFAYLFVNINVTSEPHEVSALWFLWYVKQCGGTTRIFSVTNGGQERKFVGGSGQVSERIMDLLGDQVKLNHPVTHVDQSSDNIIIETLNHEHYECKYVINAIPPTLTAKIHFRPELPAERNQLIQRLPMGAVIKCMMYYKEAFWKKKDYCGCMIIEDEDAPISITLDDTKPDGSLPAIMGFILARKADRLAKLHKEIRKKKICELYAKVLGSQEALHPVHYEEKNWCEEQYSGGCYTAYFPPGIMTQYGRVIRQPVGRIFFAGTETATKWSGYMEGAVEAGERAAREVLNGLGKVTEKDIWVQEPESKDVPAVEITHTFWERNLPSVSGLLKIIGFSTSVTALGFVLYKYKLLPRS

| IC50 (rhMAO-B) [µM] | Compound | IC50 (rhVAP-1) [µM] | IC50 (rhMAO-B; [1]) [µM] | IC50 (rhMAO-A) [µM] |
| --- | --- | --- | --- | --- |
|  | CC1CCN(c2nc3ccc(OC/C(=C/F)CN)cc3o2)C1 (stereo not drawn) [Example 30, (E)-3-fluoro-2-(((2-(3-methylpyrrolidin-1-yl)benzo[d]oxazol-6-yl)oxy)methyl)prop-2-en-1-amine 4-methylbenzenesulfonate] | < 0.1 | 0.1 to 1 | 10 to 30 |
|  | CC1CCN(c2nc3ccc(OC/C(=C\F)CN)cc3o2)C1 (stereo not drawn) [Example 42, (Z)-3-fluoro-2-(((2-(3-methylpyrrolidin-1-yl)benzo[d]oxazol-6-yl)oxy)methyl)prop-2-en-1-amine 4-methylbenzenesulfonate] | < 0.1 | 1 to 10 | 1 to 10 |
| 0.1 to 1 | CCCCn1nc2ccc(OC/C(=C\F)CN)cc2n1 [Example 66, (Z)-2-(((2-butyl-2H-benzo[d][1,2,3]triazol-5-yl)oxy)methyl)-3-fluoroprop-2-en-1-amine 4-methylbenzenesulfonate] | < 0.1 |  | 1 to 10 |
